The source of these data is US5563142A, “Diaromatic substituted compounds as anti-HIV-1 agents” (The Upjohn Company, priority 1994, dated 1996).

Experiment [1] concerns the target T1, viral reverse transcriptase (Human immunodeficiency virus type 1 group M subtype B, UniProt P04585).
T1 construct: Viral reverse transcriptase is found in extracts from bacterial clones; made in house; host or cells: Escherichia coli (extracts of bacterial clones, by the procedure of Larder et al., EMBO J. 6:3133-3137, 1987)
The experiment in a line: Viral reverse transcriptase inhibition, cell free assay. Type of experiment: biochemical, human immunodeficiency virus (HIV-1). The note with it: read-out: RT % INHIBITION (100 μM), 100 μM; poly rC or poly rG template. In a few lines: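 E. coli-expressed HIV-1 RT extract was incubated with inhibitor, 10 μM [35S]-dNTP, poly rC/rG template and oligo dG/dT primer in Tris pH 8.3 with Mg2+ at 37 °C (30 min; 15 min in an alternative version). DNA incorporation was counted on filters and reported as % inhibition (at 100 μM in one version) and IC50.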

The test system of experiment [2] is HIV-1 (MT-2 cells infected with HIV-1). The experiment in a line: Inhibition of HIV-induced syncytia formation in MT-2 cells. The note with it: Human immunodeficiency virus 1, MT2; MT-2 cells infected with HIV-1; read-out: INHIBITION OF SYNCYTIA FORMATION ED50. Format: cell-based. The source says: This test is described in Quantitative Infectivity Assay for HIV-1 and -2., Nature 332: 469-470, 1988 as well as in AIDS RESEARCH AND HUMAN RETROVIRUSES, Vol. 4, No. 6, pages 449-455 (1988), Mary Ann Liebent, Inc., Publishers; in an article entitled "Nucleotide Dimers Suppress HIV Expression In VITRO". The results (IC50 means the concentration, in μM of drug, required to inhibit syncytia formation to the extent of 50%) of various assay(s) are combined and reported as % inhibition and IC50 (calculated).
ability of various compounds used to inhibit HIVinduced syncytia formatio
in a tissue culture assay using MT2 cells infected with HIV1. This test i
described by Nara et al., Quantitative infectivity assay for HIV1 and 2,
Nature 332, 469-470 (1988), as well as in AIDS RESEARCH AND HUMAN
RETROVIRUSES, vol. 4, No. 6, pages 449-455 (1988), Mary Ann Liebent, Inc.
Publishers, and in an article by Mariano Busso, et al., entitled
"Nucleotide Dimers Suppress HIV Expression In Vitro". The results
(ED50 means the concentration, in μM of drug, required to inhibit
syncytia formation to the extent of 50%) of various assay are combined an
reported in Table I. In comparison, the known commercial compound, AZT,
percent reductions in syncytia formation at concentrations of
approximately 1 μM and 0.5 μM, respectively.

For experiment [3], the system named is HIV in primary human peripheral blood lymphocytes. The experiment in a line: Primary PBL assay: inhibition of viral replication (p24 & RNA). Format: cell-based. The settings on record: Human immunodeficiency virus 1, Lymphocyte, primary human lymphocytes infected with HIV, days three and four, read-out: PBL INHIBITION OF VIRAL REPLICATION (p24 & RNA) ED50. Put shortly:
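Mitogen-stimulated human PBLs infected with standardized HIV, cultured with drug 4 days at one tenth of the antiproliferative half-maximal concentration. Secreted p24 by capture-ELISA and total HIV RNA by hybridization on days 3 and 4, with viability in parallel; ED50 is the concentration giving 50% reduction in p24.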

pEC50, pIC50: −log10 of the molar value. Where a name gives a salt, the structure may show the parent alone.

Turning to `CCNc1ccccc1N1CCN(C(=O)c2cc3ccccc3[nH]2)CC1` [Example 29, 1-[Indolyl-2-carbonyl]-4-[2-(ethylamino)phenyl]piperazine], the inhibition at 100 µM in experiment [1] fell in the range of 75 to 83%. The pIC50 in experiment [2] was 5.55. Moreover, in experiment [3], the pEC50 is 6.00 to 7.00.

In the case of `CCNc1cccnc1N1CCN(Cc2cc3ccccc3[nH]2)CC1` [Example 20, 1-[Indolyl-2-methyl]-4-[3-(ethylamino)-2-pyridinyl]piperazine], the inhibition at 100 µM in experiment [1] was found to be 64%. Also, the pIC50 in experiment [2] was 5.00. For the same compound, the pEC50 in experiment [3] is 6.00.

As for `CCNc1cccnc1N1CCN(C(=O)c2cc3cc(O)ccc3[nH]2)CC1` [Example 37, 1-[5-Hydroxyindolyl-2-carbonyl]-4-[3-(ethylamino)-2-pyridinyl]piperazine], in experiment [1], the inhibition at 100 µM was 82 to 95%. Further, in experiment [2], the pIC50 is 6.52. The pEC50 in experiment [3] is 7.00.

For `CCNc1cccnc1N1CCN(C(=O)c2ccc3ccccc3c2)CC1` [Example 66, 1-[Naphthyl-2-carbonyl]-4-[3-(ethylamino)-2-pyridinyl]-piperazine], in experiment [1], the inhibition at 100 µM was 68 to 79%. The pIC50 in experiment [2] was less than 3.55. Further, the pEC50 in experiment [3] was 5.00 to 6.00.

On to `COc1ccc2[nH]c(C(=O)N3CCN(c4ncccc4NC(C)C)CC3)cc2c1` [Example 26, 1-[5-Methoxyindolyl-2-carbonyl]-4-[3-(1-methylethylamino)-2-pyridinyl]piperazine], for which, in experiment [1], the inhibition at 100 µM was 97%. The pIC50 in experiment [2] was 6.30 to 6.52. Moreover, the pEC50 in experiment [3] was 8.52.

On to `CC(C)(C)Nc1cccnc1N1CCN(C(=O)c2cc3ccccc3[nH]2)CC1` [Example 44, 1-[Indolyl-2-carbonyl]-4-[3-(1,1-dimethylethylamino)-2-pyridinyl]piperazine], for which the inhibition at 100 µM in experiment [1] is 89%. Besides, the pIC50 in experiment [2] is 7.00. Further, the pEC50 in experiment [3] is 8.00 to 9.00.

Turning to `CCNc1cccnc1N1CCCN(C(=O)c2cc3cc(F)ccc3[nH]2)CC1` [Example 82, 1-(5-Fluoroindolyl-2-carbonyl)-4-(3-ethylamino-2-pyridinyl)-1,4-diazepine], the inhibition at 100 µM in experiment [1] was in the range of 87 to 93%. The pIC50 in experiment [2] is 5.00. For the same compound, the pEC50 in experiment [3] is 7.00 to 8.00.

Consider `O=C(c1cc2ccccc2[nH]1)N1CCN(c2ncccc2NCC2CC2)CC1` [Example 31, 1-[Indolyl-2-carbonyl]-4-[3-(cyclopropylmethylamino)-2-pyridinyl]piperazine], for which, in experiment [1], the inhibition at 100 µM was 65 to 71%. Further, in experiment [2], the pIC50 is 5.52. Moreover, the pEC50 in experiment [3] was 6.00 to 7.00.

Consider `CCNc1cccnc1N1CCN(C(=O)c2ccc[nH]2)CC1` [Example 70, 1-[Pyrrolyl-2-carbonyl]-4-(3-ethylamino-2-pyridinyl)piperazine], for which, in experiment [1], the inhibition at 100 µM lay within 83 to 91%. For the same compound, in experiment [2], the pIC50 was 5.70. Moreover, in experiment [3], the pEC50 is no more than 6.00.

For the compound `CCN(CC)c1cccnc1N1CCN(C(=O)c2cc3ccccc3[nH]2)CC1` [Example 19, 1-[Indolyl-2-carbonyl]-4-[3-(N,N-diethylamino)-2-pyridinyl]-piperazine], the inhibition at 100 µM in experiment [1] lay in the range of 65 to 71%. In experiment [2], the pIC50 is 5.52. The pEC50 in experiment [3] is 6.00 to 7.00.

Consider `CCOc1ccccc1N1CCN(C(=O)c2cc3ccccc3[nH]2)CC1` [Example 10, 1-[Indolyl-2-carbonyl]-4-[2-ethoxyphenyl]piperazine], for which, in experiment [1], the inhibition at 100 µM was in the range of 72 to 87%. Also, the pIC50 in experiment [2] was 5.30. Further, in experiment [3], the pEC50 is less than 6.00.

Consider `CC(C)Nc1cccnc1N1CCN(C(=O)c2cc3cc(NC(=O)CN)ccc3[nH]2)CC1` [Example 86, 1-[5-(2'-Aminoacetamido)indolyl-2-carbonyl]-4-(3-(1-methylethylamino)-2-pyridinyl)piperazine hydrochloride], for which, in experiment [1], the inhibition at 100 µM is 78 to 96%. The pIC50 in experiment [2] is greater than 6.70. For the same compound, the pEC50 in experiment [3] is 8.00 to 9.00.

In the case of `CCNc1cccnc1N1CCN(Cc2cc(C)c(O)c(C)c2)CC1` [Example 4, 1-[4-Hydroxy-3,5-dimethylbenzyl]-4-[3-(ethylamino)-2-pyridinyl]piperazine], in experiment [1], the inhibition at 100 µM is 58%. Besides, the pIC50 in experiment [2] is 5.60. Further, the pEC50 in experiment [3] was no more than 5.00.

Regarding `CC(C)(C)Nc1cccnc1N1CCN(C(=O)c2cc3cc(F)ccc3[nH]2)CC1` [Example 46, 1-[5-Fluoroindolyl-2-carbonyl]-4-[3-(1,1-dimethylethylamino)-2-pyridinyl]piperazine hydrochloride salt], the inhibition at 100 µM in experiment [1] is 89%. The pIC50 in experiment [2] is 6.00. Moreover, the pEC50 in experiment [3] was 8.00 to 9.00.

`CCOc1ccccc1N1CCN(C(=O)c2cc3cc(OC)ccc3[nH]2)CC1` [Example 12, 1-[5-Methoxyindolyl-2-carbonyl]-4-[2-ethoxyphenyl]piperazine]: the inhibition at 100 µM in experiment [1] fell in the range of 64 to 80%. Also, in experiment [2], the pIC50 is greater than 6.52. In experiment [3], the pEC50 is 5.00 to 5.30.

Take `CCNc1cccnc1N1CCCN(C(=O)c2cc3ccccc3[nH]2)CC1` [Example 81, 1-[Indolyl-2-carbonyl]-4-(3-ethylamino-2-pyridinyl)-1,4-diazepine]: the inhibition at 100 µM in experiment [1] is 90 to 98%. In experiment [2], the pIC50 was 6.05. The pEC50 in experiment [3] is greater than 9.00.

For `CCNc1cccnc1N1CCN(C(=O)c2cc3ccccc3o2)CC1` [Example 27, 1[Benzofuroyl-2-carbonyl]-4-[3-(ethylamino) -2-pyridinyl]piperazine], the inhibition at 100 µM in experiment [1] lay in the range of 37 to 57%. In addition, the pIC50 in experiment [2] was less than 9.00. Also, the pEC50 in experiment [3] is 5.00.

`CC(C)Nc1cccnc1N1CCCN(C(=O)c2cc3ccccc3[nH]2)CC1` [Example 83, 1-(Indolyl-2-carbonyl)-4-[3-(1-methylethylamino)-2-pyridinyl]-1,4-diazepine]: the inhibition at 100 µM in experiment [1] was 97 to 98%. In experiment [2], the pIC50 was greater than 6.52. For the same compound, the pEC50 in experiment [3] is greater than 9.00.

Take `CCNc1cccnc1N1CCN(Cc2cc(C)c(OC)c(C)c2)CC1` [Example 3, 1-[4-Methoxy-3,5-dimethylbenzyl]-4-[3-(ethylamino)-2-pyridinyl]piperazine]: the inhibition at 100 µM in experiment [1] lay in the range of 70 to 76%. Moreover, in experiment [2], the pIC50 was 5.60 to 6.00. The pEC50 in experiment [3] was 6.00.

Take `CCNc1ccccc1N1CCN(C(=O)c2cc3cc(OC)ccc3[nH]2)CC1` [Example 28, 1-[5-Methoxyindolyl-2-carbonyl]-4-[2-(ethylamino)phenyl]piperazine]: the inhibition at 100 µM in experiment [1] was found to be 70%. In experiment [2], the pIC50 is less than 4.59. Besides, the pEC50 in experiment [3] is 6.00 to 7.00.

As for `CCNc1cccnc1N1CCN(C(=O)c2cc(C)c(OC)c(C)c2)CC1` [Example 1, 1-[4-Methoxy-3,5-dimethylbenzoyl]-4-[3-(ethylamino)-2-pyridinyl]piperazine], the inhibition at 100 µM in experiment [1] lay within 60 to 79%. Further, in experiment [2], the pIC50 was 5.00. Moreover, in experiment [3], the pEC50 is 6.00.

Regarding `CCNc1cccnc1N1CCN(C(=O)c2cc3cc(F)ccc3[nH]2)CC1` [Example 23, 1-[5-Fluoroindolyl-2-carbonyl]4-[3-(ethylamino)-2-pyridinyl]-piperazine], in experiment [1], the inhibition at 100 µM fell in the range of 92 to 95%. The pIC50 in experiment [2] was greater than 6.52. Besides, in experiment [3], the pEC50 is 8.00 to 8.52.

As for `CCCNc1cccnc1N1CCN(C(=O)c2cc3cc(F)ccc3[nH]2)CC1` [Example 21, 1-[5-Fluoroindolyl-2-carbonyl]-4-[3-(propylamino)-2-pyridinyl]piperazine], in experiment [1], the inhibition at 100 µM was 44 to 74%. The pIC50 in experiment [2] is 6.00. In addition, the pEC50 in experiment [3] is 6.00 to 8.00.

As to `CC(C)Nc1cccnc1N1CCN(C(=O)c2cc3ccccc3[nH]2)CC1` [Example 17, 1-[Indolyl-2-carbonyl]-4-[3-(1-methylethylamino)-2-pyridinyl]piperazine], the inhibition at 100 µM in experiment [1] is 96%. In addition, the pIC50 in experiment [2] is no less than 6.52. The pEC50 in experiment [3] was no less than 8.00.

On to `CCNc1cccnc1N1CCN(C(=O)c2cc3cc(Cl)ccc3[nH]2)CC1` [Example 22, 1-[5-Chloroindolyl-2-carbonyl]-4-[3-(ethylamino)-2-pyridinyl]piprazine], for which, in experiment [1], the inhibition at 100 µM lay within 76 to 82%. In addition, the pIC50 in experiment [2] is 5.30 to 6.52. For the same compound, in experiment [3], the pEC50 is 8.00.

As a reminder, the inhibition is the change of the read-out against control, counted positive when it falls.
